We go through 24 compounds from ChEMBL document CHEMBL1138507, “Synthesis, activity, and pharmacophore development for isatin-beta-thiosemicarbazones with selective activity toward multidrug-resistant cells” (J Med Chem, 2009).

A short description of test [1]: cells. Particulars: Homo sapiens, KB-V1, 72 h.
Description: Cytotoxicity against human P-glycoprotein-expressing KBV1 cells after 72 hrs by MTT assay
Test [2] can be described thus: cells. Particulars: Homo sapiens, KB 3-1, 72 h.
Description: Cytotoxicity against human P-gp-negative KB-3-1 cells after 72 hrs by MTT assay
The target of test [3] is Serine/threonine-protein kinase pim-1 (Homo sapiens, UniProt P11309).
Test [4] addresses T1, Receptor-type tyrosine-protein kinase FLT3 (Homo sapiens, UniProt P36888).
T1 sequence (P36888 whole entry): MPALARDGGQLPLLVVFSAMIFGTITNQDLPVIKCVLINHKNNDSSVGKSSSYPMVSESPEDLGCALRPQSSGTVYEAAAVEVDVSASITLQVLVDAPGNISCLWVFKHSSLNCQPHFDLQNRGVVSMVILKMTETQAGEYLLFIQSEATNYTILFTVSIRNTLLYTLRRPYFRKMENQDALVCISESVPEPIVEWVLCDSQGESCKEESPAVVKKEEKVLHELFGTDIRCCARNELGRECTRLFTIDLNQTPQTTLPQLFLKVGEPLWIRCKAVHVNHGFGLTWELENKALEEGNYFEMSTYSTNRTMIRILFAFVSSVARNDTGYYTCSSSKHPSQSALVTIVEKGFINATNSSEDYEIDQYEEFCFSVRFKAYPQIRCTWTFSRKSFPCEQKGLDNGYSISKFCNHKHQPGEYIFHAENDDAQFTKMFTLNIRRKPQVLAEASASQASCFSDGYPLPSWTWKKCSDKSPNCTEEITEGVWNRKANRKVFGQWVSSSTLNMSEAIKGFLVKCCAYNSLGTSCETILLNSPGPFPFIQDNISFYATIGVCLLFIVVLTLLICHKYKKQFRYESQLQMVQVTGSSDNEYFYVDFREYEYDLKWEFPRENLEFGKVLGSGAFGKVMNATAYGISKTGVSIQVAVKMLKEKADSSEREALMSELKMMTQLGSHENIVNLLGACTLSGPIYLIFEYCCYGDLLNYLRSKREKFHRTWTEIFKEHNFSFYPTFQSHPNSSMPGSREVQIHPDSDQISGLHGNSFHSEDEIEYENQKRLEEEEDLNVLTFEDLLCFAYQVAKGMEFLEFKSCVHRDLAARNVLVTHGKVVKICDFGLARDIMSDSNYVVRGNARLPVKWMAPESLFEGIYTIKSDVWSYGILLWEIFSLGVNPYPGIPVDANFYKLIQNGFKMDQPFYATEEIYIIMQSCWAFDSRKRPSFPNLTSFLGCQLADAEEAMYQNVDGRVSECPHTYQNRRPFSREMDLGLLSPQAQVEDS

Test [5] concerns the target T2, Serine/threonine-protein kinase Chk1 (Homo sapiens, UniProt O14757).
T2 sequence (O14757 whole entry): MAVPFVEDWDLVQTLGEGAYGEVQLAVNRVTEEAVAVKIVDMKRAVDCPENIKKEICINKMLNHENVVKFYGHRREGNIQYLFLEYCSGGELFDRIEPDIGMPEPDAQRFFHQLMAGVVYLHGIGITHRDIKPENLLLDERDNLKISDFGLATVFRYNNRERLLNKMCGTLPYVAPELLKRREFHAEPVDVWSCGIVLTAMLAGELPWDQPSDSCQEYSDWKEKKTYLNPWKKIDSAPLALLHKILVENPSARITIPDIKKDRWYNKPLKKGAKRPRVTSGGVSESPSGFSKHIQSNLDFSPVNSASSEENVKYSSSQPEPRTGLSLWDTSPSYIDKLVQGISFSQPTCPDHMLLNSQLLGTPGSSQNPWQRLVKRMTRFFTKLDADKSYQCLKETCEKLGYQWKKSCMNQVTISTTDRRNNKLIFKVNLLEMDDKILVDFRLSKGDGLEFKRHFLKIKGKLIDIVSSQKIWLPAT

In test [6] the target is Rho-associated protein kinase 1 (Homo sapiens, UniProt Q13464). The experiment in a line: Inhibition of ROCK1.
The target of test [7] is Serine/threonine-protein kinase PLK2 (Homo sapiens, UniProt Q9NYY3).
Test [8] concerns the target Cyclin-dependent kinase 2 (Homo sapiens, UniProt P24941). As to the kind of experiment: Inhibition of CDK2/cyclinA.
Test [9] addresses Tyrosine-protein kinase ABL1 (Homo sapiens, UniProt P00519). The experiment in a line: Inhibition of ABL1.
In test [10] the target is Ribosomal protein S6 kinase alpha-1 (Homo sapiens, UniProt Q15418).
Test [11] concerns the target Protein kinase C alpha type (Homo sapiens, UniProt P17252). The experiment in a line: Inhibition of PKCalpha.

Chain of Tyrosine-protein kinase ABL1 (P00519 whole entry): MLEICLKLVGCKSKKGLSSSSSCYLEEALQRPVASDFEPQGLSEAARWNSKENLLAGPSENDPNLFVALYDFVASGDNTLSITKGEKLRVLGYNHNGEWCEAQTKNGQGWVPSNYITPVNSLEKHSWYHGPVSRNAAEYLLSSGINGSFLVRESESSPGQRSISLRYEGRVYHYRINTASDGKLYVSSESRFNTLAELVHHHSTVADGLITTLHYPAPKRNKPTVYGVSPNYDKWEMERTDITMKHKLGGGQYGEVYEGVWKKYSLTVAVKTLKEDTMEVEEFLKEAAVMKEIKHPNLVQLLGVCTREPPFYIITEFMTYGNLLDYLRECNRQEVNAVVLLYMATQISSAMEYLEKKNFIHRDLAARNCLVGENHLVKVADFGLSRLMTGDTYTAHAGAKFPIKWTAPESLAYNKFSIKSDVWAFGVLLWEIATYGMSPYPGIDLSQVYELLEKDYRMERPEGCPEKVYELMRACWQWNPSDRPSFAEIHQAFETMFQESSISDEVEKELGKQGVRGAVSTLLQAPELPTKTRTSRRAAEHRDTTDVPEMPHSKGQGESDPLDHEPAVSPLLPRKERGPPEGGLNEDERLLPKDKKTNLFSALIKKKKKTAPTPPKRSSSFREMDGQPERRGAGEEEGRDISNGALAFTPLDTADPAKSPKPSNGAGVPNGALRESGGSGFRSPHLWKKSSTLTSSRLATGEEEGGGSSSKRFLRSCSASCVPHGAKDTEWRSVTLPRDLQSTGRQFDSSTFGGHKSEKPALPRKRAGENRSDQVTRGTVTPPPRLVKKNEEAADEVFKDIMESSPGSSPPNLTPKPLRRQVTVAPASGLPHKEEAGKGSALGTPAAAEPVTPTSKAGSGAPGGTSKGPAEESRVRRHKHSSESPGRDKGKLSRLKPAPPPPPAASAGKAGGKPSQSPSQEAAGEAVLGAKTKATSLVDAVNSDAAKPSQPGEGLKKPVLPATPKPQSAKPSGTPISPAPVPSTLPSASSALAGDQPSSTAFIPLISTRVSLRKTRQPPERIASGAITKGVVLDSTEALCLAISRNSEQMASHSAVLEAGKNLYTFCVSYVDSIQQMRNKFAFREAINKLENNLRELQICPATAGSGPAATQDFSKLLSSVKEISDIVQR
Chain of Ribosomal protein S6 kinase alpha-1 (Q15418 whole entry): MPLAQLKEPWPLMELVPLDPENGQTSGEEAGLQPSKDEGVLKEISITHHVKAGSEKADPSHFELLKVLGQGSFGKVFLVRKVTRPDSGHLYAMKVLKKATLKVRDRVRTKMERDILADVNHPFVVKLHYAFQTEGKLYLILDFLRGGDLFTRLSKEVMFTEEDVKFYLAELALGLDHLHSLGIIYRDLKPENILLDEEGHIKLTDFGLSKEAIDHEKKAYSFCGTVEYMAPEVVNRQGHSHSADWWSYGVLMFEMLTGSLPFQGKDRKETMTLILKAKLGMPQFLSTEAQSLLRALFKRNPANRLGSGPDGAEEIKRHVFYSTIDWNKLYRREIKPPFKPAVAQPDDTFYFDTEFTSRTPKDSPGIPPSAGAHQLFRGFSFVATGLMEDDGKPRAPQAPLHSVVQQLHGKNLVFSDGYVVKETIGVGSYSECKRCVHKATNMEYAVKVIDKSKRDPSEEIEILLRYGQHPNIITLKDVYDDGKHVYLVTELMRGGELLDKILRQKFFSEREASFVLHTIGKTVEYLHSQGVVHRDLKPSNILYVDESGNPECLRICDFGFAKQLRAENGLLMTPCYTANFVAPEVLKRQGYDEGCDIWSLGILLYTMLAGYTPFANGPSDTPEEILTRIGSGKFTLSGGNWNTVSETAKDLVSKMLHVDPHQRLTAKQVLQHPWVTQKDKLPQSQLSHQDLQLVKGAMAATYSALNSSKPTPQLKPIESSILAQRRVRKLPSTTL
Chain of Serine/threonine-protein kinase pim-1 (P11309 whole entry): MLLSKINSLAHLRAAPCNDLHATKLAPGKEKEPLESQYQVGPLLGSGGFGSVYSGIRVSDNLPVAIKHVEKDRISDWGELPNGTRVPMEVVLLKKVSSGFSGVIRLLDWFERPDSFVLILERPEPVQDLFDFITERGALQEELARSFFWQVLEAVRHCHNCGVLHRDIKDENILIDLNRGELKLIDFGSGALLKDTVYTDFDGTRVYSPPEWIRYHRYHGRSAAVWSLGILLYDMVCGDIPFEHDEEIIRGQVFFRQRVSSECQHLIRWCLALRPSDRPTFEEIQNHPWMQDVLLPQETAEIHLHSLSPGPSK
Chain of Serine/threonine-protein kinase PLK2 (Q9NYY3 whole entry): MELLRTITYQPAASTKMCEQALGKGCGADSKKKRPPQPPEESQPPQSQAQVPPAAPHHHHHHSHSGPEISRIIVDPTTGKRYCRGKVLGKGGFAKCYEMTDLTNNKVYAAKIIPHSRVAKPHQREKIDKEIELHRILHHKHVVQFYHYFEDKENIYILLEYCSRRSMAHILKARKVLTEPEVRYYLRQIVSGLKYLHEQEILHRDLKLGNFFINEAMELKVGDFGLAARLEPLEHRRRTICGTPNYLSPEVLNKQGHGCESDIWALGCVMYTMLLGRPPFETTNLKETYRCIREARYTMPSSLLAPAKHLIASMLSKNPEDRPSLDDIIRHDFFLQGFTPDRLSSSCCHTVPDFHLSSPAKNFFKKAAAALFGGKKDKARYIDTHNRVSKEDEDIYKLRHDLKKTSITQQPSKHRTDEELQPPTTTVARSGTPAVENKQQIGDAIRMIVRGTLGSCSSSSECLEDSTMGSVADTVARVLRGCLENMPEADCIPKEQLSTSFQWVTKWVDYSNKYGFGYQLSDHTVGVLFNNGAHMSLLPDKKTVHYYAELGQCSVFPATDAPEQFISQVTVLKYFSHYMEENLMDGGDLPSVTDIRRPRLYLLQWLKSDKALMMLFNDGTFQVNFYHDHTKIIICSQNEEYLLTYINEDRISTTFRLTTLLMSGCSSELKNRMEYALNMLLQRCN
Chain of Rho-associated protein kinase 1 (Q13464 whole entry): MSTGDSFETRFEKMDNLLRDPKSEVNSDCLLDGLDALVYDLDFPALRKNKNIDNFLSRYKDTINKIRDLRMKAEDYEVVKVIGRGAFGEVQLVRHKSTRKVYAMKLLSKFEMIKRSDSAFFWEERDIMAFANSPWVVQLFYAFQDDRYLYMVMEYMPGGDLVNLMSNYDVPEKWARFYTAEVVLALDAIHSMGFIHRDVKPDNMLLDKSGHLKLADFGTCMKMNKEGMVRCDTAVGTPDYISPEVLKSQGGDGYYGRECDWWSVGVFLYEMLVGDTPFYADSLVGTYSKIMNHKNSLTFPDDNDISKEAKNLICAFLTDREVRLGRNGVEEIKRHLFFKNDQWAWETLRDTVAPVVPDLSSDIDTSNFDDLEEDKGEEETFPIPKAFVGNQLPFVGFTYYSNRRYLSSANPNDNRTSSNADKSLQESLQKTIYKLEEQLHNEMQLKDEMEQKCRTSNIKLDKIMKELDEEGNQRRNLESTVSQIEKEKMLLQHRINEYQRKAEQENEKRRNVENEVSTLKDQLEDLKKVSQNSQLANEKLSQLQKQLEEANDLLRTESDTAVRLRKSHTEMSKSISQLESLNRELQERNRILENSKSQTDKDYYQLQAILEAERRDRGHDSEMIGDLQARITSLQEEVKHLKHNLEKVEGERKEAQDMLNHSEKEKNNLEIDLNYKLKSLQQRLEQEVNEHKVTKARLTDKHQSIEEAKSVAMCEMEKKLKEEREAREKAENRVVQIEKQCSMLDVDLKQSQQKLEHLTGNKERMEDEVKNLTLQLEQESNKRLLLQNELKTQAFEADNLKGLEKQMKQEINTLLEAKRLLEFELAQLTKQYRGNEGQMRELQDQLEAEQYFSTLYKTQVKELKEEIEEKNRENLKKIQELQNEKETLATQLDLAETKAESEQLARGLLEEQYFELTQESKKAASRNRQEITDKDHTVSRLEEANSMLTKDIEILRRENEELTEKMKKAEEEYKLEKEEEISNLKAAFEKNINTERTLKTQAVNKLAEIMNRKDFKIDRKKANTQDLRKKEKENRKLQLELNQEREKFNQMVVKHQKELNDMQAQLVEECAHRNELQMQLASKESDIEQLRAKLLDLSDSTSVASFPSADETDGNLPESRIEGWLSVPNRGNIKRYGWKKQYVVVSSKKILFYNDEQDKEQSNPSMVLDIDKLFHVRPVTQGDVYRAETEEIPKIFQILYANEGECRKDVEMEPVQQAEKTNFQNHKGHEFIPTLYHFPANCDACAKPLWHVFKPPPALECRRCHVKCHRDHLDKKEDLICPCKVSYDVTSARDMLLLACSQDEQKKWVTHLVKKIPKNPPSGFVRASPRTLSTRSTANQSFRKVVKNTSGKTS

Take `NC(=S)/N=N/c1c(O)[nH]c2ccccc12`: the IC50 in test [1] and in [2] was greater than 50 µM throughout.
`O=C1Nc2ccc([N+](=O)[O-])cc2/C1=N/NC(=S)Nc1ccccc1`: the IC50 in test [1] was 10.2 µM; in [1] (read-out: pIC50 (converted)) it was 10.2 µM; in test [2] it was 14.5 µM; in [2] (read-out: pIC50 (converted)), 14.5 µM.
Regarding `C=CCNC(=S)N/N=C1\C(=O)Nc2ccc([N+](=O)[O-])cc21`, the IC50 was 34.3 µM in test [1], 35.5 µM in test [1] (read-out: pIC50 (converted)), 17 µM in test [2] and 28.2 µM in test [2] (read-out: pIC50 (converted)).
For `Cc1cnc(/C=N/NC(N)=S)c2cccc(N)c12` the same measures were 2.1 µM, 2.09 µM, 1.9 µM and 1.91 µM.
Regarding `COc1ccc(NC(=S)NN)cc1`, the IC50 in [1] and in [2] was greater than 50 µM each time.
With `COc1ccc(NC(=S)N/N=C/c2ccccn2)cc1`, the IC50 is 2.4 µM in test [1], 2.4 µM in [1] (read-out: pIC50 (converted)), 3.4 µM in [2] and 3.39 µM in test [2] (read-out: pIC50 (converted)).
Take `COc1ccc(NC(=S)N/N=C2\C(=O)Nc3c2ccc2ccccc32)cc1`: the IC50 in test [1] is 30.3 µM; in test [2], 4.4 µM; in test [2] (read-out: pIC50 (converted)), 4.37 µM.
`COc1ccc(NC(=S)N/N=C2\C(=O)Nc3ccc(F)cc32)cc1`: the IC50 in test [1] was 5.2 µM; in test [1] (read-out: pIC50 (converted)), 5.25 µM; in test [2] it was 39.3 µM; in test [2] (read-out: pIC50 (converted)), 38.9 µM.
On to `COc1ccc(NC(=S)N/N=C2\C(=O)N(C)c3ccccc32)cc1`, for which the IC50 in test [1] is 9.3 µM; in test [1] (read-out: pIC50 (converted)), 9.33 µM; in test [2] it was 19.6 µM; in test [2] (read-out: pIC50 (converted)) it was 19.5 µM.
Take `COc1ccc(NC(=S)N/N=C2\C(=O)Nc3ccc([N+](=O)[O-])cc32)cc1`: the IC50 in [1] is 6.7 µM; in test [1] (read-out: pIC50 (converted)), 6.76 µM; in [2] it was 26.3 µM; in test [2] (read-out: pIC50 (converted)), 26.3 µM.
For `COc1ccc(NC(=O)N/N=C2\C(=O)Nc3ccccc32)cc1`, the IC50 in test [1] is greater than 50 µM; in test [2], 27.7 µM.
As for `COc1ccc(NC(=S)NN=C2Cc3ccccc3C2)cc1`, the IC50 in test [1] and in test [2] was greater than 50 µM each time.
On to `COc1ccc(NC(=S)N/N=C2\CCc3ccccc32)cc1`, for which the IC50 in test [1] and in test [2] was greater than 50 µM each time.
For `O=C1Nc2ccc(Br)cc2/C1=N/NC(=S)Nc1ccc([N+](=O)[O-])cc1`, the IC50 is 4 µM in test [1], 3.98 µM in test [1] (read-out: pIC50 (converted)), 28.4 µM in test [2] and 28.2 µM in test [2] (read-out: pIC50 (converted)).
In the case of `CCOC(=O)C(=CNC(=S)N/N=C1\C(=O)Nc2ccccc21)C(=O)OCC`, the IC50 in test [1] and in test [2] was greater than 50 µM throughout.
For `O=C1Nc2ccc(Br)cc2/C1=N/NC(=S)Nc1ccc(F)cc1`, the IC50 in test [1] is 5.8 µM; in test [1] (read-out: pIC50 (converted)) it was 5.75 µM; in [2], 13.1 µM; in test [2] (read-out: pIC50 (converted)), 13.2 µM.
Consider `COc1ccc(NC(=S)NNC2=c3ccccc3=NC2=O)cc1`, for which the IC50 in test [3] was greater than 50 µM; in test [4], greater than 50 µM; in [5], greater than 50 µM; in [6], greater than 50 µM; in test [1], 3.3 µM; in [1] (read-out: pIC50 (converted)), 3.31 µM. In addition, the IC50 in test [7] was greater than 50 µM; in [2], 14.2 µM; in test [2] (read-out: pIC50 (converted)), 14.1 µM; in test [8], greater than 50 µM; in test [9], greater than 50 µM; in test [10] it was 34.9 µM. The compound further registered an IC50 in test [11] greater than 50 µM.
As for `COc1ccc(NC(=S)N/N=C2\C(=O)Nc3ccc(S(=O)(=O)O)cc32)cc1`, the IC50 in test [1] and in [2] was greater than 50 µM throughout.
For `COc1ccc(NC(=S)N/N=C/c2ccc(NC(C)=O)cc2)cc1`, the IC50 in [1] and in [2] was greater than 50 µM throughout.
Turning to `C=CCNC(=S)N/N=C1\C(=O)Nc2ccccc21`, the IC50 is 20.7 µM in [1], 20.9 µM in [1] (read-out: pIC50 (converted)), 26.1 µM in [2] and 26.3 µM in [2] (read-out: pIC50 (converted)).
On to `NC(=O)N/N=C1\C(=O)Nc2ccccc21`, for which the IC50 in [1] and in test [2] was greater than 50 µM throughout.
`CC(=O)Nc1ccc(/C=N/NC(N)=S)cc1` [AMITHIOZONE]: the IC50 in test [1] and in [2] was greater than 50 µM in each case.
Take `O=C1Nc2ccccc2C1=O` [ISATIN]: the IC50 in test [1] and in [2] was greater than 50 µM throughout.
In the case of `NC(=S)N/N=C/c1ncccc1N` [TRIAPINE], the IC50 in test [1] is 5.9 µM; in test [1] (read-out: pIC50 (converted)) it was 5.89 µM; in test [2], 1.4 µM; in test [2] (read-out: pIC50 (converted)), 1.41 µM.
